Source: patent US6875761B2 (Eisai Co., Ltd., priority 1997, dated 2005)
Counter-ions that a name gives are not always drawn.

Q: For CCN1CCN(c2nc(-c3ccc(N4CCC(O)CC4)nc3)cc3ccsc23)CC1 (as salt: hydrochloride) [Example 265, 5-[2-(4-hydroxypiperidin-1-yl)pyridin-5-yl]-7-(4-ethylpiperazin-1-yl)thieno[2,3-c]pyridine Hydrochloride], which melting point is on record?
A: The melting point was 208 to 210 °C.

Q: Which melting point does the source give for CCN1CCN(c2nc(-c3ccc(C4=CCOCC4)cc3)cc3ccsc23)CC1 (as salt: hydrochloride) [Example 266, 5-[4-(5,6-dihydro-2H-pyran-4-yl)phenyl]-7-(4-ethylpiperazin-1-yl)thieno[2,3-c]pyridine Hydrochloride] here?
A: Its melting point is 176 to 179 °C.

Q: For CCN1CCN(c2nc(-c3ccc(OC(C)COC)nc3)cc3ccsc23)CC1 (stereo not shown) (as salt: hydrochloride) [Example 267, 5-[2-(2-methoxyethoxy-2-methyl)pyridin-5-yl]-7-(4-ethylpiperazin-1-yl)thieno[2,3-c]pyridine Hydrochloride], which melting point is on record?
A: Its melting point is 112 to 114 °C.

Q: Which melting point does the source give for CCN1CCN(c2nc(-c3ccc(OCCOC)nc3)cc3ccsc23)CC1 (as salt: hydrochloride) [Example 269, 5-[2-(2-methoxyethoxy)pyridin-5-yl]-7-(4-ethylpiperazin-1-yl)-thieno[2,3-c]pyridine hydrochloride] here?
A: Its melting point is 116 to 118 °C.

Q: With CCN1CCN(c2nc(-c3ccc(C4=CCC(O)CC4)cc3)cc3ccsc23)CC1 (stereo not shown) (as salt: hydrochloride) [Example 270, 5-[4-(4-hydroxycyclohexen-1-yl)phenyl]-7-(4-ethylpiperazin-1-yl)thieno[2,3-c]pyridine hydrochloride] as the molecule, how does the melting point read?
A: Its melting point is 168 to 170 °C.

Q: For CCCCC(=O)c1ccc(-c2cc3ccsc3c(N3CCN(CC)CC3)n2)cc1 (as salt: hydrochloride) [Example 271, 7-(1-ethylpiperazin-4-yl)-5-(4-pentanoylphenyl)phenyl)thieno[2,3-c]pyridine dihydrochloride], which melting point is on record?
A: The melting point was 109 to 114 °C.

Q: Which melting point does the source give for CCN1CCN(c2nc(-c3ccc(C(=O)CC(C)C)cc3)cc3ccsc23)CC1 (as salt: hydrochloride) [Example 272, 7-(1-ethylpiperazin-4-yl)-5-[4-(3-methylbutanoyl)phenyl]thieno[2,3-c]pyridine dihydrochloride] here?
A: The melting point was 139 to 141 °C.

Q: With CCN1CCN(c2nc(-c3ccc(C(=O)NC4CCCCC4)cc3)cc3ccsc23)CC1 (as salt: hydrochloride) [Example 273, dihydrochloride] as the molecule, how does the melting point read?
A: Its melting point is 160 to 165 °C.

Q: With CCN1CCN(c2nc(-c3ccc(C(=O)N4CCCC4)cc3)cc3ccsc23)CC1 (as salt: hydrochloride) [Example 274, 7-(1-ethylpiperazin-4-yl)-5-[4-(pyrrolidinyl-1-carbonyl)phenyl]thieno[2,3-c]pyridine dihydrochloride] as the molecule, how does the melting point read?
A: Its melting point is 143 to 146 °C.

Q: For COc1ccc(-c2cc3ccsc3c(N3CCN(CCO)CC3)n2)cc1 (as salt: hydrochloride) [Example 276, 5-(4-methoxyphenyl)-7-[4-(2-hydroxyethyl)piperazin-1-yl]thieno[2,3-c]pyridine hydrochloride], which melting point is on record?
A: Its melting point is 129 to 131 °C.

Q: For CN1CCN(c2nc(-c3ccc(OCCO)cc3)cc3sccc23)CC1 (as salt: hydrochloride) [Example 279, 4-(4-methylpiperazin-1-yl)-6-[4-(2-hydroxyethoxy)phenyl]thieno[3,2-c]pyridine hydrochloride], which melting point is on record?
A: Its melting point is 148 to 150 °C.

Q: With CCN1CCN(c2nc(-c3cccc(OCCO)c3)cc3sccc23)CC1 (as salt: hydrochloride) [Example 284, 4-(1-ethylpiperazin-4-yl)-6-[3-(2-hydroxyethoxy)phenyl]thieno-[3,2-c]pyridine dihydrochloride] as the molecule, how does the melting point read?
A: The melting point was 126 to 130 °C.

Q: For CCN1CCN(c2nc(-c3ccc(CCC(C)O)cc3)cc3sccc23)CC1 (stereo not shown) (as salt: hydrochloride) [Example 285, 4-(1-ethylpiperazin-4-yl)-6-[4-(3-hydroxybutyl)phenyl]thieno[3,2-c]pyridine hydrochloride], which melting point is on record?
A: Its melting point is 122 to 124 °C.

Q: With CCN1CCN(c2nc(-c3ccc(OCCO)cc3)cc3sccc23)CC1 (as salt: hydrochloride) [Example 286, dihydrochloride] as the molecule, how does the melting point read?
A: The melting point was 128 to 129 °C.

Q: Which melting point does the source give for CN1CCN(c2nc(-c3ccc(OCC(C)(C)O)cc3)cc3sccc23)CC1 (as salt: hydrochloride) [Example 288, 6-[4-(2-methyl-2-hydroxypropoxy)phenyl]-4-(4-methylpiperazin-1-yl)thieno[3,2-c]pyridine hydrochloride] here?
A: Its melting point is 135 to 138 °C.

Q: With CCCN1CCN(c2nc(-c3ccc(OCC(C)(C)O)cc3)cc3sccc23)CC1 (as salt: hydrochloride) [Example 289, 6-[4-(2-methyl-2-hydroxypropoxy)phenyl]-4-(4-propylpiperazin-1-yl)thieno[3,2-c]pyridine hydrochloride] as the molecule, how does the melting point read?
A: The melting point was 133 to 135 °C.

Q: Which melting point does the source give for CCN1CCN(c2nc(-c3ccc(CCC(C)(C)O)cc3)cc3sccc23)CC1 (as salt: hydrochloride) [Example 291, 4-[4-ethylpiperazin-1-yl)-6-[4-(3-hydroxy-3-methylbutyl)phenyl]thieno[3,2-c]pyridine dihydrochloride] here?
A: The melting point was 116 to 117.5 °C.

Q: Which melting point does the source give for CCN1CCN(c2nc(-c3ccc(OCCCC(C)(C)O)cc3)cc3sccc23)CC1 (as salt: hydrochloride) [Example 292, 6-[4-(4-methyl-4-hydroxypentyloxy)phenyl]-4-(4-ethylpiperazin-1-yl)thieno[3,2-c]pyridine] here?
A: Its melting point is 116 to 118 °C.

Q: For CCCN1CCN(c2nc(-c3ccc(OCCO)cc3)cc3sccc23)CC1 (as salt: hydrochloride) [Example 293, 4-(4-propylpiperazin-1-yl)-6-[4-(2-hydroxyethoxy)phenyl]thieno[3,2-c]pyridine], which melting point is on record?
A: Its melting point is 128 to 130 °C.

Q: Which melting point does the source give for CC(C)(O)COc1ccc(-c2cc3sccc3c(N3CCN(CCF)CC3)n2)cc1 (as salt: hydrochloride) [Example 294, 6-[4-(2-methyl-2-hydroxypropoxy)phenyl]-4-[4-(2-fluoroethyl)piperazin-1-yl]thieno[3,2-c]pyridine] here?
A: The melting point was 135 to 137 °C.

Q: For OCCOc1ccc(-c2cc3sccc3c(N3CCN(CCF)CC3)n2)cc1 (as salt: hydrochloride) [Example 295, 4-[4-(2-fluoroethyl)piperazin-1-yl]-6-[4-(2-hydroxyethoxy)phenyl]thieno[3,2-c]pyridine], which melting point is on record?
A: Its melting point is 138 to 140 °C.

Q: For CC(C)(O)COc1ccc(-c2cc3sccc3c(N3CCN(CCO)CC3)n2)cc1 (as salt: hydrochloride) [Example 296, 6-[4-(2-methyl-2-hydroxypropoxy)phenyl]-4-[4-(2-hydroxyethyl)piperazin-1-yl]thieno]3,2-c]pyridine hydrochloride], which melting point is on record?
A: Its melting point is 139 to 142 °C.

Q: Which melting point does the source give for CC(C)(O)COc1ccc(-c2cc3sccc3c(N3CCN(CCc4ccccc4)CC3)n2)cc1 (as salt: hydrochloride) [Example 297, 6-[4-(2-methyl-2-hydroxypropoxy)phenyl]-4-[4-(2-phenylethyl)piperazin-1-yl]thieno[3,2-c]pyridine] here?
A: The melting point was 140 to 142 °C.

Q: For CCN1CCN(c2nc(-c3cccc(OCCO)c3)cc3ccoc23)CC1 (as salt: hydrochloride) [Example 298, 7-(1-ethylpiperazin-4-yl)-5-[3-(2-hydroxyethoxy)phenyl]furo[2,3-c]pyridine dihydrochloride], which melting point is on record?
A: The melting point was 117 to 121 °C.

Q: With CCN1CCN(c2nc(-c3ccc(CCCO)cc3)cc3ccoc23)CC1 (as salt: hydrochloride) [Example 299, 7-(1-ethylpiperazin-4-yl)-5-[4-(3-hydroxypropyl)phenyl]furo[2,3-c]pyridine dihydrochloride] as the molecule, how does the melting point read?
A: Its melting point is 126 to 130 °C.

Q: Which melting point does the source give for CCN1CCN(c2nc(-c3ccc(CCC(C)O)cc3)cc3ccoc23)CC1 (stereo not shown) (as salt: hydrochloride) [Example 300, 7-(1-ethylpiperazin-4-yl)-5-[4-(3-hydroxybutyl)phenyl]furo[2,3-c]pyridine dihydrochloride] here?
A: The melting point was 175 to 177 °C.

Q: For CCN1CCN(c2nc(-c3ccc(OCC(C)(C)O)cc3)cc3ccccc23)CC1 (as salt: hydrochloride) [Example 309, 1-(1-ethylpiperazin-4-yl)-3-[4-(2-hydroxy-2-methylpropoxy)phenyl]isoquinoline dihydrochloride], which melting point is on record?
A: Its melting point is 129 to 134 °C.

Q: For COc1ccc(-c2cc3ccccc3c(N3CCN(CC(N)=O)CC3)n2)cc1 (as salt: hydrochloride) [Example 314, 1-[1-(carbamoylmethyl)piperazin-4-yl]-3-(4-methoxyphenyl)isoquinoline dihydrochloride], which melting point is on record?
A: Its melting point is 153 to 155 °C.

Q: With COc1ccc(-c2cc3ccccc3c(N(C)CCN(C)C)n2)cc1 (as salt: hydrochloride) [Example 319, 1-{N-[2-(2-dimethylamino)ethyl]-N-methylamino}-3-(4-methoxyphenyl)isoquinoline dihydrochloride] as the molecule, how does the melting point read?
A: Its melting point is 160 to 162 °C.

Q: With COc1ccc(-c2cc3ccccc3c(NCCN3CCOCC3)n2)cc1 (as salt: hydrochloride) [Example 323, 1-[2-(4-morpholinyl)ethyl]amino-3-(4-methoxyphenyl)isoquinoline dihydrochloride] as the molecule, how does the melting point read?
A: The melting point was 135 to 136 °C.

Q: Which melting point does the source give for COc1ccc(-c2cc3ccccc3c(N3CCC(N4CCCCC4)CC3)n2)cc1 (as salt: hydrochloride) [Example 325, 1-[4-(piperidin-1-yl)piperidine-1-yl]-3-(4-methoxyphenyl)isoquinoline dihydrohcloride] here?
A: The melting point was 223 to 238 °C.

Q: With CCN1CCN(c2nc(-c3ccc4c(c3)OCCO4)cc3ccccc23)CC1 (as salt: hydrochloride) [Example 332, 1-(4-ethylpiperazin-1-yl)-3-(3,4-ethylenedioxyphenyl)isoquinoline dihydrochloride] as the molecule, how does the melting point read?
A: The melting point was 141 to 143 °C.

Q: Which melting point does the source give for CCN1CCN(c2nc(-c3ccc(CCCOC)cc3)cc3ccccc23)CC1 (as salt: hydrochloride) [Example 333, 1-(4-ethylpiperazin-1-yl)-3-[4-(3-(methoxypropyl)phenyl]isoquinolinedihydrochloride] here?
A: The melting point was 191 to 192 °C (dec.).

Q: Which melting point does the source give for CCN1CCN(c2nc(-c3cc(OC)ccn3)cc3ccccc23)CC1 (as salt: hydrochloride) [Example 335, 1-(4-ethylpiperazin-1-yl)-3-(4-methoxypyridin-2-yl)isoquinoline dihydrochloride] here?
A: The melting point was 172 to 173 °C (dec.).
